Data as given in US5093342A, “Use of omeprazole as an antimicrobial agent” (priority 1989, dated 1992).
In brackets after ≈: the same amount, converted by molar mass.

Tested on: Campylobacter pylori 8005
Assay: in vitro antimicrobial activity, agar plate dilution method (MIC)
Type: cell-based
Conditions: Helicobacter pylori, 48 h, Brucella Agar containing 5% horse lysed blood, 37° C., 10% carbon dioxide gas, 2 days, inoculum 10^7 cells/ml, read-out: minimal inhibitory concentration (MIC)

COc1ccc2[nH]c([S+]([O-])Cc3ncc(C)c(OC)c3C)nc2c1 (stereo not shown) [omeprazole, 5-methoxy-2-[[(4-methoxy-3,5-dimethyl-2-pyridinyl)methyl]-sulfinyl]-1H-benzimidazole]
MIC: 0.39 mg/L (≈ 1.13 µM)
